Data published in patent US7851474B2, “Dipiperazinyl ketones and related analogues” (Neurogen Corporation, priority 2005, dated 2010).

Molecular target: T1, chimeric human H3 receptor (Homo sapiens, UniProt Q9Y5N1, E19D)
T1 construct: made in house; host or cells: Sf9 insect cells (baculovirus infection); P2 membrane preparation
Test: Chimeric human H3 receptor screening GTP binding assay (inhibition of histamine-stimulated GTP-gamma35S binding, Example 8)
Assay type: biochemical
Conditions: 1 h; Table II, "+" in the column headed Ki; assay of Example 8; read-out: percent inhibition of agonist-induced GTP-gammaS binding to H3
In short: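 Data are percent inhibition of the 1 μM histamine-stimulated GTP-gamma35S (125 pM) binding, after non-specific binding (10 uM GTP-gammaS) is subtracted. Test compound at 4 μM. Incubation was 60 min at room temperature with Sf9 membranes bearing receptor plus G-protein subunits, buffer pH 7.4 with 10 μM GDP, and filtration read-out.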

T1 sequence (Q9Y5N1 with tags, fused parts or gaps E19D): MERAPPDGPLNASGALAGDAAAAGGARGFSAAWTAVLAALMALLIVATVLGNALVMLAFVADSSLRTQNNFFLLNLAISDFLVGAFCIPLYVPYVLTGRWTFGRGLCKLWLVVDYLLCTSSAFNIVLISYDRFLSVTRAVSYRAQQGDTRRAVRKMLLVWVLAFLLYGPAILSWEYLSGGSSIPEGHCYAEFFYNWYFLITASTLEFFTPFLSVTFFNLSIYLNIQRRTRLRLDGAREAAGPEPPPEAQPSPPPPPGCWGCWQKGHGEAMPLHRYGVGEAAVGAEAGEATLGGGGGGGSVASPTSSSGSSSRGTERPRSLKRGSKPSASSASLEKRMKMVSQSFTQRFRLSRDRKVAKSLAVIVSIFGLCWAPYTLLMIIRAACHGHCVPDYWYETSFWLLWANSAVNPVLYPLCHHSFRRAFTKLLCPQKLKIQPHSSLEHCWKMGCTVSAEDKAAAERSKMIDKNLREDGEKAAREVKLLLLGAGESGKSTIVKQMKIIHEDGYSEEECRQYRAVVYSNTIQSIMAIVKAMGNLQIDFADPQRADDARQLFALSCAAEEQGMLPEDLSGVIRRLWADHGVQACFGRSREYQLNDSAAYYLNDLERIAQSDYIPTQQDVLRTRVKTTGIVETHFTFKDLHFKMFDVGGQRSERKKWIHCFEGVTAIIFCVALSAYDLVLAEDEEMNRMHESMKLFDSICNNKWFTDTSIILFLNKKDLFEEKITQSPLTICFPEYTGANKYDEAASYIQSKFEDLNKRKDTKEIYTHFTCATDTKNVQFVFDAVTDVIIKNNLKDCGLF

| SMILES | inhibition at 4 µM |
| --- | --- |
| O=C(CN1CCN(C(=O)c2cccnc2Sc2ccccc2)CC1)N1CCN(C2CCC2)CC1 [Compound 620, 1-cyclobutyl-4-[(4-{[2-(phenylthio)pyridin-3-yl]carbonyl}piperazin-1-yl)acetyl]piperazine] | > 90% |
| O=C(Cc1ccccc1OC(F)(F)F)N1CCN(CC(=O)N2CCN(C3CCC3)CC2)CC1 [Compound 621, 1-cyclobutyl-4-[(4-{[2-(trifluoromethoxy)phenyl]acetyl}piperazin-1-yl)acetyl]piperazine] | > 90% |
| O=C(Cc1ccccc1C(F)(F)F)N1CCN(CC(=O)N2CCN(C3CCC3)CC2)CC1 [Compound 622, 1-cyclobutyl-4-[(4-{[2-(trifluoromethyl)phenyl]acetyl}piperazin-1-yl)acetyl]piperazine] | > 90% |
| O=C(Cc1cccc(C(F)(F)F)c1F)N1CCN(CC(=O)N2CCN(C3CCC3)CC2)CC1 [Compound 623, 1-cyclobutyl-4-[(4-{[2-fluoro-3-(trifluoromethyl)phenyl]acetyl}piperazin-1-yl)acetyl]piperazine] | > 90% |
| Cc1onc(-c2c(Cl)cccc2Cl)c1C(=O)N1CCN(CC(=O)N2CCN(C3CCC3)CC2)CC1 [Compound 624, 1-cyclobutyl-4-[(4-{[3-(2,6-dichlorophenyl)-5-methylisoxazol-4-yl]carbonyl}piperazin-1-yl)acetyl]piperazine] | > 90% |
| CSc1sc(C(=O)N2CCN(CC(=O)N3CCN(C4CCC4)CC3)CC2)c2c1C=CCC2 [Compound 625, 1-cyclobutyl-4-[(4-{[3-(methylthio)-6,7-dihydro-2-benzothien-1-yl]carbonyl}piperazin-1-yl)acetyl]piperazine] | > 90% |
| O=C(Cc1cccc(OC(F)(F)F)c1)N1CCN(CC(=O)N2CCN(C3CCC3)CC2)CC1 [Compound 626, 1-cyclobutyl-4-[(4-{[3-(trifluoromethoxy)phenyl]acetyl}piperazin-1-yl)acetyl]piperazine] | > 90% |
| O=C(Cc1cccc(C(F)(F)F)c1)N1CCN(CC(=O)N2CCN(C3CCC3)CC2)CC1 [Compound 627, 1-cyclobutyl-4-[(4-{[3-(trifluoromethyl)phenyl]acetyl}piperazin-1-yl)acetyl]piperazine] | > 90% |
| CSc1ccc(CC(=O)N2CCN(CC(=O)N3CCN(C4CCC4)CC3)CC2)cc1 [Compound 628, 1-cyclobutyl-4-[(4-{[4-(methylthio)phenyl]acetyl}piperazin-1-yl)acetyl]piperazine] | > 90% |
| O=C(COc1ccc(OC(F)(F)F)cc1)N1CCN(CC(=O)N2CCN(C3CCC3)CC2)CC1 [Compound 629, 1-cyclobutyl-4-[(4-{[4-(trifluoromethoxy)phenoxy]acetyl}piperazin-1-yl)acetyl]piperazine] | > 90% |
| O=C(Cc1ccc(OC(F)(F)F)cc1)N1CCN(CC(=O)N2CCN(C3CCC3)CC2)CC1 [Compound 630, 1-cyclobutyl-4-[(4-{[4-(trifluoromethoxy)phenyl]acetyl}piperazin-1-yl)acetyl]piperazine] | > 90% |
| O=C(Cc1ccc(C(F)(F)F)cc1)N1CCN(CC(=O)N2CCN(C3CCC3)CC2)CC1 [Compound 631, 1-cyclobutyl-4-[(4-{[4-(trifluoromethyl)phenyl]acetyl}piperazin-1-yl)acetyl]piperazine] | > 90% |
| O=C(CN1CCN(C(=O)c2cnccc2C(F)(F)F)CC1)N1CCN(C2CCC2)CC1 [Compound 632, 1-cyclobutyl-4-[(4-{[4-(trifluoromethyl)pyridin-3-yl]carbonyl}piperazin-1-yl)acetyl]piperazine] | > 90% |
| CSc1ccc(C(=O)N2CCN(CC(=O)N3CCN(C4CCC4)CC3)CC2)s1 [Compound 633, 1-cyclobutyl-4-[(4-{[5-(methylthio)-2-thienyl]carbonyl}piperazin-1-yl)acetyl]piperazine] | > 90% |
| O=C(CN1CCN(C(=O)c2cncc(C#Cc3ccccc3)c2)CC1)N1CCN(C2CCC2)CC1 [Compound 634, 1-cyclobutyl-4-[(4-{[5-(phenylethynyl)pyridin-3-yl]carbonyl}piperazin-1-yl)acetyl]piperazine] | > 90% |
| O=C(Cc1cccc2ccccc12)N1CCN(CC(=O)N2CCN(C3CCC3)CC2)CC1 [Compound 663, 1-cyclobutyl-4-{[4-(1-naphthylacetyl)piperazin-1-yl]acetyl}piperazine] | > 90% |

The remaining lines, values ahead:

| inhibition at 4 µM | SMILES |
| --- | --- |
| > 90% | O=C(CN1CCN(C(=O)c2ccc(-n3cccc3)nc2)CC1)N1CCN(C2CCC2)CC1 [Compound 635, 1-cyclobutyl-4-[(4-{[6-(1H-pyrrol-1-yl)pyridin-3-yl]carbonyl}piperazin-1-yl)acetyl]piperazine] |
| > 90% | O=C(CN1CCN(C(=O)c2ccc(OCC(F)(F)F)nc2)CC1)N1CCN(C2CCC2)CC1 [Compound 636, 1-cyclobutyl-4-[(4-{[6-(2,2,2-trifluoroethoxy)pyridin-3-yl]carbonyl}piperazin-1-yl)acetyl]piperazine] |
| > 90% | CC(Oc1ccc(OC(F)(F)F)cc1)C(=O)N1CCN(CC(=O)N2CCN(C3CCC3)CC2)CC1 (stereo not shown) [Compound 637, 1-cyclobutyl-4-[(4-{2-[4-(trifluoromethoxy)phenoxy]propanoyl}piperazin-1-yl)acetyl]piperazine] |
| > 90% | O=C(CN1CCN(C(=O)c2ccncc2)CC1)N1CCN(C2CCC2)CC1 [Compound 655, 1-cyclobutyl-4-[(4-isonicotinoylpiperazin-1-yl)acetyl]piperazine] |
| > 90% | COc1ccc(OC)c(Sc2ncccc2C(=O)N2CCN(CC(=O)N3CCN(C4CCC4)CC3)CC2)c1 [Compound 659, 1-cyclobutyl-4-{[4-({2-[(2,5-dimethoxyphenyl)thio]pyridin-3-yl}carbonyl)piperazin-1-yl]acetyl}piperazine] |
| > 90% | Cc1nc(-c2ccc(C(F)(F)F)cc2)sc1C(=O)N1CCN(CC(=O)N2CCN(C3CCC3)CC2)CC1 [Compound 660, 1-cyclobutyl-4-{[4-({4-methyl-2-[4-(trifluoromethyl)phenyl]-1,3-thiazol-5-yl}carbonyl)piperazin-1-yl]acetyl}piperazine] |
| > 90% | Cn1nc(C(F)(F)F)cc1-c1ccc(C(=O)N2CCN(CC(=O)N3CCN(C4CCC4)CC3)CC2)s1 [Compound 661, 1-cyclobutyl-4-{[4-({5-[1-methyl-3-(trifluoromethyl)-1H-pyrazol-5-yl]-2-thienyl}carbonyl)piperazin-1-yl]acetyl}piperazine] |
| > 90% | O=C(CN1CCN(C(=O)c2cccc3ccccc23)CC1)N1CCN(C2CCC2)CC1 [Compound 662, 1-cyclobutyl-4-{[4-(1-naphthoyl)piperazin-1-yl]acetyl}piperazine] |
| > 90% | O=C(CN1CCN(C(=O)c2cccc(Cl)c2Cl)CC1)N1CCN(C2CCC2)CC1 [Compound 664, 1-cyclobutyl-4-{[4-(2,3-dichlorobenzoyl)piperazin-1-yl]acetyl}piperazine] |
| > 90% | O=C(CN1CCN(C(=O)C2COc3ccccc3O2)CC1)N1CCN(C2CCC2)CC1 (stereo not shown) [Compound 668, 1-cyclobutyl-4-{[4-(2,3-dihydro-1,4-benzodioxin-2-ylcarbonyl)piperazin-1-yl]acetyl}piperazine] |
| > 90% | O=C(CN1CCN(C(=O)c2ccc3c(c2)CCO3)CC1)N1CCN(C2CCC2)CC1 [Compound 669, 1-cyclobutyl-4-{[4-(2,3-dihydro-1-benzofuran-5-ylcarbonyl)piperazin-1-yl]acetyl}piperazine] |
| > 90% | COc1cccc(C(=O)N2CCN(CC(=O)N3CCN(C4CCC4)CC3)CC2)c1OC [Compound 670, 1-cyclobutyl-4-{[4-(2,3-dimethoxybenzoyl)piperazin-1-yl]acetyl}piperazine] |
| > 90% | Cc1cccc(C(=O)N2CCN(CC(=O)N3CCN(C4CCC4)CC3)CC2)c1C [Compound 671, 1-cyclobutyl-4-{[4-(2,3-dimethylbenzoyl)piperazin-1-yl]acetyl}piperazine] |
| > 90% | O=C(CN1CCN(C(=O)c2ccc(Cl)cc2Cl)CC1)N1CCN(C2CCC2)CC1 [Compound 674, 1-cyclobutyl-4-{[4-(2,4-dichlorobenzoyl)piperazin-1-yl]acetyl}piperazine] |
| > 90% | COc1ccc(C(=O)N2CCN(CC(=O)N3CCN(C4CCC4)CC3)CC2)c(OC)c1 [Compound 677, 1-cyclobutyl-4-{[4-(2,4-dimethoxybenzoyl)piperazin-1-yl]acetyl}piperazine] |
| > 90% | Cc1ccc(C(=O)N2CCN(CC(=O)N3CCN(C4CCC4)CC3)CC2)c(C)c1 [Compound 679, 1-cyclobutyl-4-{[4-(2,4-dimethylbenzoyl)piperazin-1-yl]acetyl}piperazine] |
| > 90% | O=C(CN1CCN(C(=O)c2cc(Cl)ccc2Cl)CC1)N1CCN(C2CCC2)CC1 [Compound 681, 1-cyclobutyl-4-{[4-(2,5-dichlorobenzoyl)piperazin-1-yl]acetyl}piperazine] |
| > 90% | O=C(CN1CCN(C(=O)c2cc(F)ccc2F)CC1)N1CCN(C2CCC2)CC1 [Compound 684, 1-cyclobutyl-4-{[4-(2,5-difluorobenzoyl)piperazin-1-yl]acetyl}piperazine] |
| > 90% | COc1ccc(OC)c(C(=O)N2CCN(CC(=O)N3CCN(C4CCC4)CC3)CC2)c1 [Compound 686, 1-cyclobutyl-4-{[4-(2,5-dimethoxybenzoyl)piperazin-1-yl]acetyl}piperazine] |
| > 90% | Cc1cc(C(=O)N2CCN(CC(=O)N3CCN(C4CCC4)CC3)CC2)c(C)o1 [Compound 688, 1-cyclobutyl-4-{[4-(2,5-dimethyl-3-furoyl)piperazin-1-yl]acetyl}piperazine] |
| > 90% | Cc1ccc(C)c(C(=O)N2CCN(CC(=O)N3CCN(C4CCC4)CC3)CC2)c1 [Compound 689, 1-cyclobutyl-4-{[4-(2,5-dimethylbenzoyl)piperazin-1-yl]acetyl}piperazine] |
